Results on three compounds are retold here after US6660864B2, “Polymorphic forms of 6-[4-(1-cyclohexyl-1H-tetrazol-5-yl)butoxy]-3,4-dihydro-2(1H)-quinolinone” (priority 2001, dated 2003).

Data set [1] in a line: Aqueous solubility of cilostazol polymorphic form. The format is physicochemical. Conditions: Form A as prepared by the procedures of the '479 patent.
Data set [2] can be described thus: Bioavailability of cilostazol polymorphic form. It is filed as in vivo. Conditions: Form A as prepared by the procedures of the '479 patent.
Data set [3] is described as follows: Relative solubility suggested by DSC thermogram (lower melting point, crystal packing forces). It is filed as physicochemical. The settings on record: suggested by the lower melting point in DSC (FIG. 8). An excerpt:
(§1) Characterization of Form A of cilostazol, Form B of cilostazol, and Form C of cilostazol was further completed using DSC thermograms, shown in FIGS. 3, 4, and 5, respectively, with DSC thermograms for combinations of Form A and Form B; Form B and Form C; and Forms A, B, and C are shown in FIGS. 6, 7, and 8 respectively. DSC data were generated using a Mettler-Toledo DSC 821^e (Columbus, Ohio) with a Julabo FT900 intercooler chiller (Julabo Company; Allentown, Pa.). In general, samples were analyzed in a vented, sealed aluminum pan. Because the endothermic peak may vary depending upon the rate of heating and the calibration and precision of the instrument, with the amount of peak variation dependent upon the heating rate used, all thermograms included herein were run under the same, consistent conditions: heating at 10° C. per minute under a nitrogen purge at 40 mL/minute.
FIG. 8 illustrates a DSC thermogram for the combination of Form A, Form B and Form C having a second heating cycle with a maximum temperature of about 110° C. with a holding time of about 30 minutes. The peaks in the third heating cycle show a Form A to Form B to Form C peak area ratio of approximately 8:2:1, respectively, with the relative amount of Form A, Form B and Form C further variable on the heat of enthalpy of each polymorphic form.
Background: DSC measures the heat that a sample takes up or gives off during a temperature scan.

Data set [4] can be described thus: DSC heating of disturbed/stressed sample: solid state phase transformation to Form A. It is filed as physicochemical. Conditions: sample disturbed (scratching/stressed), DSC from 30° C. to approximately 200° C. at 10° C. per minute.
Description: as §1, with “mL/minute. The resultant sample of Example 1A was disturbed with scratching, which caused the cilostazol sample to undergo a solid state phase transformation at approximately 119° C. followed by an endotherm of melt at approximately 160° C. (Form A) during heating by DSC from 30° C. to approximately 200° C. at 10° C. per minute. When the sample is stressed and reheated (as detailed in Example 2A), the sample undergoes a solid state phase transformation at approximately 147° C. followed by an endotherm of melt at about 160° C. […]” for “mL/minute.”

Data set [5] can be described thus: Stability of the crystalline form. The format is physicochemical.

Each structure is given as a SMILES string.

In the case of `O=C1CCc2cc(OCCCCc3nnnn3C3CCCCC3)ccc2N1` [Form A, 6-[4-(1-cyclohexyl-1H-tetrazol-5-yl)butoxy]-3,4-dihydro-2(1H)-quinolinone], the aqueous solubility result in data set [1] was “low aqueous solubility”. For the same compound, in data set [2], the bioavailability entry was “low bioavailability”.
In the case of `O=C1CCc2cc(OCCCCc3nnnn3C3CCCCC3)ccc2N1` [Form B, 6-[4-(1-cyclohexyl-1H-tetrazol-5-yl)butoxy]-3,4-dihydro-2(1H)-quinolinone], the “solubility relative to Form A” value in data set [3] was “more soluble than Form A”. In data set [4] (listed as Example 1A), the “solid state phase transformation temperature (to Form A)” value is “approximately 119 °C”. In addition, the “stability of the polymorphic form” value in data set [5] is “stable”.
`O=C1CCc2cc(OCCCCc3nnnn3C3CCCCC3)ccc2N1` [Form C, 6-[4-(1-cyclohexyl-1H-tetrazol-5-yl)butoxy]-3,4-dihydro-2(1H)-quinolinone]: the “solid state phase transformation temperature (to Form A)” value in data set [4] (listed as Example 2A) is “approximately 147 °C”.
